Experimental data taken from paper PMC7066176, “Crystal structure of a lipin/Pah phosphatidic acid phosphatase” (Nature Communications, 2020).

Target: T1, Tt Pah2 (Tetrahymena thermophila, UniProt I7MFJ3)
T1 construct: gene TTHERM_00215970; residues 1-321 (lacks 14 C-terminal residues of 335), codon-optimised, E. coli; ppSUMO His-SUMO tag cleaved by ULP-1, or pET28 N-terminal His tag kept
T1 sequence (I7MFJ3 1-321): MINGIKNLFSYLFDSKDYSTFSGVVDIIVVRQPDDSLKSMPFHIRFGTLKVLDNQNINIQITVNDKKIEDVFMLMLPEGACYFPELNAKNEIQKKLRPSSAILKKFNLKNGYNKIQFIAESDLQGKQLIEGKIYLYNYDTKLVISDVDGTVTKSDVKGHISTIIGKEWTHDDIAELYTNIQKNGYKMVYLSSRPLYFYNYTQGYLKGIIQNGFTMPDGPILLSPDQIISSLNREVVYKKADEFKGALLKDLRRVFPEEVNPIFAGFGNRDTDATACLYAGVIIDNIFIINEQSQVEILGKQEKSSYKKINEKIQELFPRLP
Experiment: liposome sedimentation, SDS-PAGE
Type: binding
Details: 20 mol% POPA liposomes with 40 mol% POPE and POPC, pH 7.5, room temperature; preferential over neutral and POPS liposomes

With CCCCCCCC/C=C\CCCCCCCC(=O)O[C@H](COC(=O)CCCCCCCCCCCCCCC)COP(=O)(O)O [POPA] the “liposome sedimentation, SDS-PAGE” value was “Tt Pah2 also preferentially interacted with PA-containing liposomes, in comparison with neutral or anionic PS-enriched”.
